Source: ChEMBL document CHEMBL3044899, “Effect of chloro and fluoro groups on the antimicrobial activity of 2,5-disubstituted 4-thiazolidinones: a comparative study” (2012)
Active and inactive are the calls of the source. No cut-off for these calls is given here.

Key:
Bacillus subtilis [1] = assay: Antibacterial activity against Bacillus subtilis MTCC 121 by cup plate method; type: functional, organism-based
Pseudomonas aeruginosa [2] = assay: Antibacterial activity against Pseudomonas aeruginosa MTCC 2453 at 100 ug/ml by cup-plate method; type: functional; conditions: read-out: DIZ
Bacillus subtilis [3] = assay: Antibacterial activity against Bacillus subtilis MTCC 121 at 200 ug/ml by cup plate method; type: functional; conditions: read-out: DIZ
Staphylococcus aureus [4] = assay: Antibacterial activity against Staphylococcus aureus MTCC 96 at 200 ug/ml by cup-plate method; type: functional; conditions: read-out: DIZ
Bacillus subtilis [5] = assay: Antibacterial activity against Bacillus subtilis MTCC 121 at 100 ug/ml by cup plate method; type: functional; conditions: read-out: DIZ
Staphylococcus aureus [6] = assay: Antibacterial activity against Staphylococcus aureus MTCC 96 at 50 ug/ml by cup-plate method; type: functional; conditions: read-out: DIZ
Staphylococcus aureus [7] = assay: Antibacterial activity against Staphylococcus aureus MTCC 96 by cup-plate method; type: functional, organism-based
Pseudomonas aeruginosa [8] = assay: Antibacterial activity against Pseudomonas aeruginosa MTCC 2453 at 200 ug/ml by cup-plate method; type: functional; conditions: read-out: DIZ
Pseudomonas aeruginosa [9] = assay: Antibacterial activity against Pseudomonas aeruginosa MTCC 2453 by cup-plate method; type: functional, organism-based
Candida albicans = assay: Antifungal activity against Candida albicans MTCC 227 at 50 to 300 ug/ml by cup-plate method; type: functional, organism-based
Staphylococcus aureus [10] = assay: Antibacterial activity against Staphylococcus aureus MTCC 96 at 300 ug/ml by cup-plate method; type: functional; conditions: read-out: DIZ
Escherichia coli [11] = assay: Antibacterial activity against Escherichia coli MTCC 739 at 50 ug/ml by cup-plate method; type: functional; conditions: read-out: DIZ
Escherichia coli [12] = assay: Antibacterial activity against Escherichia coli MTCC 739 by cup-plate method; type: functional, organism-based
Bacillus subtilis [13] = assay: Antibacterial activity against Bacillus subtilis MTCC 121 at 50 ug/ml by cup plate method; type: functional; conditions: read-out: DIZ
Escherichia coli [14] = assay: Antibacterial activity against Escherichia coli MTCC 739 at 200 ug/ml by cup-plate method; type: functional; conditions: read-out: DIZ
Staphylococcus aureus [15] = assay: Antibacterial activity against Staphylococcus aureus MTCC 96 at 100 ug/ml by cup-plate method; type: functional; conditions: read-out: DIZ
Bacillus subtilis [16] = assay: Antibacterial activity against Bacillus subtilis MTCC 121 at 300 ug/ml by cup plate method; type: functional; conditions: read-out: DIZ
Pseudomonas aeruginosa [17] = assay: Antibacterial activity against Pseudomonas aeruginosa MTCC 2453 at 300 ug/ml by cup-plate method; type: functional; conditions: read-out: DIZ
Escherichia coli [18] = assay: Antibacterial activity against Escherichia coli MTCC 739 at 100 ug/ml by cup-plate method; type: functional; conditions: read-out: DIZ
Escherichia coli [19] = assay: Antibacterial activity against Escherichia coli MTCC 739 at 300 ug/ml by cup-plate method; type: functional; conditions: read-out: DIZ
Pseudomonas aeruginosa [20] = assay: Antibacterial activity against Pseudomonas aeruginosa MTCC 2453 at 50 ug/ml by cup-plate method; type: functional; conditions: read-out: DIZ

Row | Structure (SMILES) | Activity (Bacillus subtilis [1]) | zone of inhibition at 100 µg/mL (Pseudomonas aeruginosa [2]) [mm] | zone of inhibition at 200 µg/mL (Bacillus subtilis [3]) [mm] | zone of inhibition at 200 µg/mL (Staphylococcus aureus [4]) [mm] | zone of inhibition at 100 µg/mL (Bacillus subtilis [5]) [mm] | zone of inhibition at 50 µg/mL (Staphylococcus aureus [6]) [mm] | Activity (Staphylococcus aureus [7]) | zone of inhibition at 200 µg/mL (Pseudomonas aeruginosa [8]) [mm] | Activity (Pseudomonas aeruginosa [9]) | Activity (Candida albicans) | zone of inhibition at 300 µg/mL (Staphylococcus aureus [10]) [mm] | zone of inhibition at 50 µg/mL (Escherichia coli [11]) [mm] | Activity (Escherichia coli [12]) | zone of inhibition at 50 µg/mL (Bacillus subtilis [13]) [mm] | zone of inhibition at 200 µg/mL (Escherichia coli [14]) [mm] | zone of inhibition at 100 µg/mL (Staphylococcus aureus [15]) [mm] | zone of inhibition at 300 µg/mL (Bacillus subtilis [16]) [mm] | zone of inhibition at 300 µg/mL (Pseudomonas aeruginosa [17]) [mm] | zone of inhibition at 100 µg/mL (Escherichia coli [18]) [mm] | zone of inhibition at 300 µg/mL (Escherichia coli [19]) [mm] | also measured
1 | O=C1N/C(=N\c2ccc(F)c(Cl)c2)S/C1=C\c1ccc(O)cc1 | Dose-dependent effect | 9 | 10 | 10 | 10 | 8 | Dose-dependent effect | 10 | Dose-dependent effect | inactive | 11 | 8 | Dose-dependent effect | 9 | 10 | 10 | 11 | 10 | 9 | 10 | zone of inhibition at 50 µg/mL (Pseudomonas aeruginosa [20]): 8 mm
2 | O=C1N/C(=N\c2ccc(Cl)cc2)S/C1=C\c1ccccc1 | Dose-dependent effect | 8 | 9 | 9 | 8 | 5 | Dose-dependent effect | 8 | Dose-dependent effect | inactive | 10 | 7 | Dose-dependent effect | 5 | 10 | 8 | 10 | 11 | 8 | 12 | zone of inhibition at 50 µg/mL (Pseudomonas aeruginosa [20]): 8 mm
3 | O=C1N/C(=N\c2ccc(F)c(Cl)c2)S/C1=C\c1ccccc1Cl | Dose-dependent effect | 10 | 14 | 12 | 12 | 10 | Dose-dependent effect | 12 | Dose-dependent effect | inactive | 14 | 8 | Dose-dependent effect | 10 | 9 | 11 | 14 | 12 | 8 | 10 | zone of inhibition at 50 µg/mL (Pseudomonas aeruginosa [20]): 10 mm
